Experimental data published in ChEMBL document CHEMBL3045748, “A novel and eco-friendly procedure for the synthesis of some pyrazolo-thiadiazolo-pyrimidinones and its in vitro anti-bacterial activity” (2012).

Tests used:
Type in all cases: functional
Details in all cases: read-out: DIZ
Bacillus subtilis = assay: Antibacterial activity against Bacillus subtilis at 50 ug after 18 hr by Kirby-Bauer's disk diffusion assay
Staphylococcus aureus = assay: Antibacterial activity against Staphylococcus aureus at 50 ug after 18 hr by Kirby-Bauer's disk diffusion assay
Escherichia coli = assay: Antibacterial activity against Escherichia coli at 50 ug after 18 hr by Kirby-Bauer's disk diffusion assay
Klebsiella = assay: Antibacterial activity against Klebsiella at 50 ug after 18 hr by Kirby-Bauer's disk diffusion assay

| SMILES | zone of inhibition at 50 µg/disc (Bacillus subtilis) [mm] | zone of inhibition at 50 µg/disc (Staphylococcus aureus) [mm] | zone of inhibition at 50 µg/disc (Escherichia coli) [mm] | zone of inhibition at 50 µg/disc (Klebsiella) [mm] |
| --- | --- | --- | --- | --- |
| O=c1c2cnn(-c3ccccc3)c2nc2sc(CNCc3ccco3)nn12 | 18.5 | 20 | 8.5 | 13 |
| O=c1c2cnn(-c3ccccc3)c2nc2sc(CN3CCOCC3)nn12 | 7 | 7.5 | 9 | 14.5 |
| O=c1c2cnn(-c3ccccc3)c2nc2sc(CNc3ccccc3)nn12 | 14 | 14.5 | 10.5 | 12.5 |
| Cc1cccc(NCc2nn3c(=O)c4cnn(-c5ccccc5)c4nc3s2)c1 | 17 | 16.5 | 9.5 | 12 |
| COc1ccc(NCc2nn3c(=O)c4cnn(-c5ccccc5)c4nc3s2)cc1 | 15.5 | 15.5 | 11.5 | 14 |
| CNCc1nn2c(=O)c3cnn(-c4ccccc4)c3nc2s1 | 6.5 | 13.5 | 11 | 11.5 |
| CCNCc1nn2c(=O)c3cnn(-c4ccccc4)c3nc2s1 | 16 | 18.5 | 10.5 | 12 |
| CCCCCCNCc1nn2c(=O)c3cnn(-c4ccccc4)c3nc2s1 | 20.5 | 17.5 | 11 | 11.5 |
| CC1(C)S[C@@H]2[C@H](NC(=O)[C@H](N)c3ccccc3)C(=O)N2[C@H]1C(=O)O [AMPICILLIN] | 23.3 | 22.5 | 18.5 | 24.5 |
